Results reported in patent publication US20150031890A1, “PHARMACEUTICAL COMPOSITION COMPRISING BICYCLIC PYRIDINOL DERIVATIVES FOR PREVENTING OR TREATING DISEASES CAUSED BY ANGIOGENESIS” (Research Cooperation Foundation of Yeungnam University, priority 2011, published 2015).

Experiments:
[1] = test system: neovascularization induced by VEGF in chicken chorioallantoic membrane (CAM); test: chorioallantoic membrane (CAM) assay, VEGF-induced angiogenesis; assay type: in vivo
Method: To examine angiogenesis inhibitory effects in vivo, a chorioallantoic membrane (CAM) assay was carried out (Nguyen M et al., Microvascular Res., 47, pp 31-40, 1994).
Fertilized chicken eggs were cultured keeping the temperature at 37° C. and the relative humidity at 55%. On the tenth day, the first small hole was made in the region of air sac and the second hole was dug in the flat region of egg, where a window was to be made, using a hypodermic needle (Greencross Medical Science, Korea).
Each egg was deflated through the first hole in the region of the air sac so that the chorioallantoic membrane (CAM) was split from the egg shell. Subsequently, a window was made by cutting this region using a grinding wheel (Multipro 395JA, Dremel, Mexico).
Then, a whatman filter disc #1 (Whatman Inc. USA) was treated with 3 mg/ml of cortisone acetate and dried. The filter disc was drenched with a vascular endothelial growth factor (VEGF) in a concentration of 20 ng/CAM.
The filter disc was put on the vessels through the previously made window, and a compound 12 of Example was dissolved in dimethylsulfoxide (DMSO) and diluted with phosphate buffered saline (PBS) to treat by concentrations.
After 3 days from the drug treatment, the CAMs, on which the filter disc was placed, were separated and washed with PBS to take images using a stereomicroscope (Stemi SV6 stereomicroscope, Carl Zeiss, Germany) and Image-Pro Plus software (Media Cybernetics; Silver Spring, Md., USA). Then, the number of branches was counted and the result data were analyzed.

HUVEC cells [2] = test: VEGF-induced growth inhibitory effect in HUVEC cells (MTT); assay type: cell-based, human; settings: 24 hours, MTT (FIG. 3)
Method: HUVEC cells were cultured in a flask coated with 0.2% gelatin. Then, the HUVEC cells were cultured in an endothelial cell basal medium-2 (EBM-2, Clonetics, San Diego, Calif.). This EBM-2 contained fetal bovine serum (FBS), hydrocortisone, a human basic fibroblast growth factor (hFGF-B), a vascular endothelial growth factor (VEGF), a human recombinant insulin-like growth factor (R3-IGF-1), ascorbic acid, a human epidermal growth factor (hEGF), GA-1000, and heparin. The HUVEC cells were cultured for 4 to 5 days and injected into a 24-well plate in a density of 5×10^4 cells/well, and the media of the respective wells were set at 1 ml. In order to test the effect of the compound 12 in endothelial cells induced by the VEGF, the HUVEC cells were treated with a mixture of the VEGF and the compound 12 and cultured for 24 hours, and, then, 100 μl of MTT 3-(4,5-dimethylthiazol-2-yl)-2,5-diphenyl tetrazolium bromide; 5 g MTT/l in H2O) was added thereto and further cultured for 4 hours. Then, 200 μl of dimethylsulfoxide (DMSO) was added to the respective wells containing the corresponding cells and mixed with a pipette to dissolve the reduced MTT crystals. Relative cell survival rates were measured by scanning with a microplate reader (Molecular Devices, Menlo Park, Calif.) having 540 nm filter.

HUVEC cells [3] = test: chemostatic migration / infiltration inhibitory effect in HUVEC cells; assay type: cell-based, human; settings: 1, 3, 10 μM, 24 hours, matrigel/collagen coated filter (FIG. 4)
Method: In order to examine a chemostatic migration inhibitory effect of the compound of the present invention, the following in vitro experiment was carried out using HUVEC cells (Mi-Sung Kim et al., Cancer Research, 63, 5454-5461, 2003; Sang-Oh Yoon et al., The Journal of Biological Chemistry, 276, 20085-20092, 2001; Sonia Zorzet et al., The Journal of Pharmacology and Experimental Therapeutics, 295, 927-933, 2000). A culture plate applied hereto was a 24-well plate (Corning Costar, Cambridge, Mass.) including a polycarbonate filter having a plurality of pores of […] in size. The bottom side of the polycarbonate filter was coated with 20 l of type I collagen in a concentration of 0.5 mg/ml, and the top side thereof was coated with 20 l of matrigel (BD Bioscience, Bedford, Mass.) in a concentration of 1.5 mg/ml. Here, the lower region of the polycarbonate filter was filled with a medium including 2% FBS, and the HUVEC cells were inoculated into the upper region of the polycarbonate filter. In this case, the compound 12 was dissolved in dimethyl sulfoxide (DMSO) and diluted with phosphate buffered saline (PBS) by concentrations (1, 3, 10 μM). The HUVEC cells inoculated as such were cultured at 37° C. for 24 hours. Subsequently, the cells infiltrating the bottom side of the polycarbonate filter were fixed with methanol and stained with hematoxylin and eosin. […]

HUVEC cells [4] = test: ROS scavenging effect in VEGF-induced HUVEC cells (DCF-DA); assay type: cell-based, human; settings: 3 hours pre-treatment, VEGF 15 minutes, compared with the VEGF (FIG. 5)
Method: (§1) In order to measure an ROS scavenging effect in HUVEC cells induced by a VEGF, 2′,7′-dichlorofluorescein diacetate (DCF-DA) was used. […] The HUVEC cells were injected into 8-well plates coated with 0.2% gelatin in a density of 1×10^5 cells/well and then cultured for 24 hours. A pre-treatment was carried out to the compound 12 for 3 hours and induced by the VEGF for 15 minutes and washed with PBS (pH 7.4) three times. Then, 10 μM DCF-DA was put into an EBM-2 and used to treat in darkroom for 30 minutes, and then washed again with the PBS three times. A fluorescence degree of the cells was measured using a fluorescence microscope. FIG. 5 provides photomicrographs taken at a magnification of 400 times of cells in order to check an ROS scavenging effect of the compound 12 of the present invention. […] FIG. 6 and FIG. 7 illustrate an observation result of the ROS scavenging effect of the compound 12 by treating the adult retinal pigment epithelium (ARPE)-19 cell line with 4-hydroxynonenal (4-HNE) or angiotensin II, which is a risk factor of macular degeneration. […] The 4-hydroxynonenal (4-HNE) or angiotensin II, which is a risk factor of macular degeneration caused cell damage by generation of ROS in ARPE cell and caused damage of a Bruch's membrane and angiogenesis, resulting in macular degeneration and loss of eyesight.

[5] = test system: adult retinal pigment epithelium (ARPE)-19 cell line; test: ROS scavenging effect in ARPE-19 cell line (4-HNE or angiotensin II); assay type: cell-based, human
Method: as §1

A549 lung cancer cells = test: angiogenesis caused by tumorigenesis and tumor growth, A549 cells inoculated to CAM; assay type: in vivo, chicken; settings: A549 cells 1.5×10^6 cells/CAM, 5 days after inoculation (FIG. 8)
Method: FIG. 8 illustrates an observation result of angiogenesis caused by tumorigenesis by inoculating A549 lung cancer cells to a CAM and a tumor growth inhibitory effect. Fertilized chicken eggs were cultured, and on the ninth day, a window was made in the same manner, and instead of a disc, cancer cells were mixed with matrigel at a ratio of 1:1 and treated with the compound 12 and inoculated in a density of 1.5×10^6 cells/CAM. After 5 days from the inoculation, a CAM portion, in which tumor was formed, was separated and washed with PBS to take images using a stereomicroscope (Stemi SV6 stereomicroscope, Carl Zeiss, Germany) and Image-Pro Plus software (Media Cybernetics; Silver Spring, Md., USA). Then, the number of branches was counted and the result data were analyzed.

[6] = single oral dose toxicity experiment in mice; assay type: in vivo; settings: single oral dose 0.5, 1 and 2 g/kg, 7 days
Method: The compound 12 was suspended in a 0.5% methyl cellulose solution and orally administered to male Balb/c mice with a single dose of 0.5 g/kg, 1 g/kg, and 2 g/kg. Then, the survival rate and weights of the mice were checked for 7 days.
After the administration, whether the animal was dead or not, clinical symptoms, changes in weight were observed, and a hematological test and a blood chemical test were carried out.

[7] = VEGF 20 ng/CAM + 1 μg/CAM, 3 days after treatment
[8] = VEGF 20 ng/CAM + 3 ng/CAM, 0.7 μM
[9] = VEGF 20 ng/CAM + 100 ng/CAM, 23 μM

CNC(=O)[C@H](Cc1ccccc1)NC(=O)[C@H](CC(C)C)[C@H](CSc1cccs1)C(=O)NO [Batimastat]
Inhibition rate (%) [1, 7]: 78.4 ± 7.4% | Number of branches/Main vessel [1, 7]: 19.9 ± 2.87

Cc1c(C)c2c(c(C)c1O)CC[C@@](C)(CCC[C@H](C)CCC[C@H](C)CCCC(C)C)O2 [α-tocopherol]
Inhibition rate (%) [1, 8]: 45.1 ± 9.3% | Number of branches/Main vessel [1, 8]: 32.3 ± 3.5 | Inhibition rate (%) [1, 9]: 64.4 ± 14.2% | Number of branches/Main vessel [1, 9]: 24.3 ± 2.7

CN(C)c1ccc(/C=C2\C(=O)Nc3ccccc32)cc1 [SU4312]
Inhibition rate (%) [1, 7]: 74.6 ± 12.1% | Number of branches/Main vessel [1, 7]: 24 ± 4.6

Cc1nc2c(c(C)c1O)CC(C)(CCC[C@H](C)CCC[C@H](C)CCCC(C)C)N2C (stereo partly shown) [Compound 12]
increase in neovascularization induced by the VEGF ([1]; CAM, VEGF 20 ng/CAM): decreased in a concentration-dependent manner | inhibition at 0.001 µM ([1]; Gallus gallus, VEGF 20 ng/CAM + 0.004 ng/CAM, 1 nM, read-out: Inhibition rate (%)): 64 ± 12.5% | inhibition at 0.01 µM ([1]; Gallus gallus, VEGF 20 ng/CAM + 0.04 ng/CAM, 10 nM, read-out: Inhibition rate (%)): 71.4 ± 6.4% | IC50 ([1]; Gallus gallus, VEGF-induced angiogenesis, treated by concentrations (FIG. 2)): 0.7 nM | Number of branches/Main vessel ([1]; VEGF 20 ng/CAM + 0.004 ng/CAM, 1 nM): 28 ± 4.7 | Number of branches/Main vessel ([1]; VEGF 20 ng/CAM + 0.04 ng/CAM, 10 nM): 25.2 ± 2.4 | VEGF-induced cell growth (HUVEC cells [2]): reduced VEGF-induced cell growth in a concentration-dependent manner | infiltration of the HUVEC cells (HUVEC cells [3]): reduced infiltration of the HUVEC cells in a concentration-dependent manner | fluorescence degree of the cells (ROS, DCF-DA) (HUVEC cells [4]): remarkably decreased as compared with the VEGF | fluorescence degree of the cells (ROS) ([5]; ARPE-19 treated with 4-hydroxynonenal (4-HNE), compared with control group (FIG. 7)): remarkably decreased as compared with the control group | fluorescence degree of the cells (ROS) ([5]; ARPE-19 treated with angiotensin II, compared with control group (FIG. 6)): remarkably decreased as compared with the control group | angiogenesis caused by tumorigenesis (A549 lung cancer cells): inhibited angiogenesis caused by tumorigenesis | tumor growth (A549 lung cancer cells): inhibited tumor growth in a significantly low concentration as compared with α-tocopherol | clinical symptoms [6]: any especially remarkable clinical symptoms were not observed
